Converted amounts (≈) assume the structure as drawn.
How the values were obtained:
Experiment in all cases: Bacterial growth minimal inhibitory concentration, microdilution
Assay type in all cases: cell-based
[1] = system: Moraxella catarrhalis A894; conditions: quinolone-sensitive strain, cation-adjusted Mueller Hinton Broth
Experimental: (§1) Minimal Inhibitory Concentrations (MICs; mg/l) were determined in cation-adjusted Mueller Hinton Broth by a microdilution method following the description given in “Methods for Dilution Antimicrobial Susceptibility Tests for Bacteria that Grow Aerobically”, Approved standard, 7th ed., Clinical and Laboratory Standards Institute (CLSI) Document M7-A7, Wayne, Pa., USA, 2006.
(§2) All Example compounds were tested against several Gram positive and especially Gram negative bacteria. […] Staphylococcus aureus A798, Klebsiella pneumoniae A651 and Acinetobacter baumanii T6474 are multiply-resistant strains (in particular quinolone-resistant), while Moraxella catarrhalis A894 and E. coli ATCC 25922 are quinolone-sensitive strains.

E. coli ATCC 25922 = conditions: Escherichia coli, ATCC25922; quinolone-sensitive strain; cation-adjusted Mueller Hinton Broth
Experimental: as §1, §2

[2] = system: Staphylococcus aureus A798; conditions: multiply-resistant, quinolone-resistant strain, cation-adjusted Mueller Hinton Broth, read-out: MIC for S. aureus A798
Experimental: as §1, §2

[3] = system: Acinetobacter baumanii T6474; conditions: Acinetobacter baumannii, multiply-resistant, quinolone-resistant strain, cation-adjusted Mueller Hinton Broth
Experimental: as §1, §2

[4] = system: Klebsiella pneumoniae A651; conditions: multiply-resistant, quinolone-resistant strain, cation-adjusted Mueller Hinton Broth, read-out: MIC for K. pneumoniae A651
Experimental: as §1, §2

| SMILES | MIC [1] [µg/mL] | MIC (E. coli ATCC 25922) [µg/mL] | MIC [2] [µg/mL] | MIC [3] [µg/mL] | MIC [4] [µg/mL] |
| --- | --- | --- | --- | --- | --- |
| O=C1CSc2ccc(CN3CCC(CCNc4nc5c(cc4F)c(=O)c(C(=O)O)cn5C4CC4)CC3)nc2N1 [Example 6, 1-Cyclopropyl-6-fluoro-4-oxo-7-{2-[1-(3-oxo-3,4-dihydro-2H-pyrido[3,2-b][1,4]thiazin-6-ylmethyl)-piperidin-4-yl]-ethylamino}-1,4-dihydro-[1,8]naphthyridine-3-carboxylic acid] | 0.5 (≈ 0.905 µM) | 2 (≈ 3.62 µM) | > 8 | 0.5 (≈ 0.905 µM) | 2 (≈ 3.62 µM) |
| O=C1CSc2ccc(CNC3CCN(CCc4nc5c(cc4F)c(=O)c(C(=O)O)cn5C4CC4)CC3)nc2N1 [Example 3, 1-Cyclopropyl-6-fluoro-4-oxo-7-(2-{4-[(3-oxo-3,4-dihydro-2H-pyrido[3,2-b][1,4]thiazin-6-ylmethyl)-amino]-piperidin-1-yl}-ethyl)-1,4-dihydro-[1,8]naphthyridine-3-carboxylic acid] | 0.5 (≈ 0.905 µM) | 0.25 (≈ 0.452 µM) | 2 (≈ 3.62 µM) | 4 (≈ 7.24 µM) | 1 (≈ 1.81 µM) |
| O=C1COc2ccc(CNC[C@H]3CC[C@H](Nc4nc5c(cc4F)c(=O)c(C(=O)O)cn5C4CC4)CC3)nc2N1 [Example 8, trans-1-Cyclopropyl-6-fluoro-4-oxo-7-(4-{[(3-oxo-3,4-dihydro-2H-pyrido[3,2-b][1,4]oxazin-6-ylmethyl)-amino]-methyl}-cyclohexylamino)-1,4-dihydro-[1,8]naphthyridine-3-carboxylic acid] | 0.25 (≈ 0.466 µM) | 0.5 (≈ 0.932 µM) | > 8 | > 8 | 8 (≈ 14.9 µM) |
| O=C1CSc2ccc(CNC3CCN(c4nc5c(cc4F)c(=O)c(C(=O)O)cn5C4CC4)CC3)nc2N1 [Example 10, 1-Cyclopropyl-6-fluoro-4-oxo-7-{4-[(3-oxo-3,4-dihydro-2H-pyrido[3,2-b][1,4]thiazin-6-ylmethyl)-amino]-piperidin-1-yl}-1,4-dihydro-[1,8]naphthyridine-3-carboxylic acid] | 0.063 (≈ 0.12 µM) | 0.5 (≈ 0.953 µM) | 4 (≈ 7.63 µM) | 0.25 (≈ 0.477 µM) | 1 (≈ 1.91 µM) |
| O=C1CSc2ccc(CN[C@H]3CC[C@H](Nc4nc5c(cc4F)c(=O)c(C(=O)O)cn5C4CC4)CC3)nc2N1 [Example 2, trans-1-Cyclopropyl-6-fluoro-4-oxo-7-{4-[(3-oxo-3,4-dihydro-2H-pyrido[3,2-b][1,4]thiazin-6-ylmethyl)-amino]-cyclohexylamino}-1,4-dihydro-[1,8]naphthyridine-3-carboxylic acid] | 0.25 (≈ 0.464 µM) | 0.5 (≈ 0.928 µM) | 4 (≈ 7.43 µM) | 0.5 (≈ 0.928 µM) | 1 (≈ 1.86 µM) |
| O=C1CSc2ccc(CNCCC3CCN(c4nc5c(cc4F)c(=O)c(C(=O)O)cn5C4CC4)CC3)nc2N1 [Example 5, 1-Cyclopropyl-6-fluoro-4-oxo-7-(4-{2-[(3-oxo-3,4-dihydro-2H-pyrido[3,2-b][1,4]thiazin-6-ylmethyl)-amino]-ethyl}-piperidin-1-yl)-1,4-dihydro-[1,8]naphthyridine-3-carboxylic acid] | 0.125 (≈ 0.226 µM) | 0.5 (≈ 0.905 µM) | 8 (≈ 14.5 µM) | 1 (≈ 1.81 µM) | 2 (≈ 3.62 µM) |
| O=C1CSc2ccc(CNCC3CCN(c4nc5c(cc4F)c(=O)c(C(=O)O)cn5C4CC4)CC3)nc2N1 [Example 7, 1-Cyclopropyl-6-fluoro-4-oxo-7-(4-{[(3-oxo-3,4-dihydro-2H-pyrido[3,2-b][1,4]thiazin-6-ylmethyl)-amino]-methyl}-piperidin-1-yl)-1,4-dihydro-[1,8]naphthyridine-3-carboxylic acid] | 0.031 (≈ 0.0576 µM) | 0.5 (≈ 0.928 µM) | > 8 | 2 (≈ 3.71 µM) | 4 (≈ 7.43 µM) |
| O=C1CSc2ccc(CNCCN3CCN(c4cc5c(cc4F)c(=O)c(C(=O)O)cn5C4CC4)CC3)nc2N1 [Example 11, 1-Cyclopropyl-6-fluoro-4-oxo-7-(4-{2-[(3-oxo-3,4-dihydro-2H-pyrido[3,2-b][1,4]thiazin-6-ylmethyl)-amino]-ethyl}-piperazin-1-yl)-1,4-dihydro-quinoline-3-carboxylic acid] | 1 (≈ 1.81 µM) | 2 (≈ 3.62 µM) | 8 (≈ 14.5 µM) | > 8 | 8 (≈ 14.5 µM) |
| O=C1CSc2ccc(CNCC3CCN(Cc4nc5c(cc4F)c(=O)c(C(=O)O)cn5C4CC4)CC3)nc2N1 [Example 9, 1-Cyclopropyl-6-fluoro-4-oxo-7-(4-{[(3-oxo-3,4-dihydro-2H-pyrido[3,2-b][1,4]thiazin-6-ylmethyl)-amino]-methyl}-piperidin-1-ylmethyl)-1,4-dihydro-[1,8]naphthyridine-3-carboxylic acid] | 1 (≈ 1.81 µM) | 1 (≈ 1.81 µM) | > 8 | 8 (≈ 14.5 µM) | 2 (≈ 3.62 µM) |
| O=C1CSc2ccc(CNCCN3CCN(c4nc5c(cc4F)c(=O)c(C(=O)O)cn5C4CC4)CC3)nc2N1 [Example 4, 1-Cyclopropyl-6-fluoro-4-oxo-7-(4-{2-[(3-oxo-3,4-dihydro-2H-pyrido[3,2-b][1,4]thiazin-6-ylmethyl)-amino]-ethyl}-piperazin-1-yl)-1,4-dihydro-[1,8]naphthyridine-3-carboxylic acid] | 0.25 (≈ 0.452 µM) | 1 (≈ 1.81 µM) | > 8 | 2 (≈ 3.61 µM) | 2 (≈ 3.61 µM) |
| O=C1CSc2ccc(CNC[C@H]3CC[C@H](Nc4nc5c(cc4F)c(=O)c(C(=O)O)cn5C4CC4)CC3)nc2N1 [Example 1, trans-1-Cyclopropyl-6-fluoro-4-oxo-7-(4-{[(3-oxo-3,4-dihydro-2H-pyrido[3,2-b][1,4]thiazin-6-ylmethyl)-amino]-methyl}-cyclohexylamino)-1,4-dihydro-[1,8]naphthyridine-3-carboxylic acid] | 0.125 (≈ 0.226 µM) | 0.25 (≈ 0.452 µM) | 1 (≈ 1.81 µM) | 0.125 (≈ 0.226 µM) | 0.5 (≈ 0.905 µM) |

The next lines start with the values.

| MIC [1] [µg/mL] | MIC (E. coli ATCC 25922) [µg/mL] | MIC [2] [µg/mL] | MIC [3] [µg/mL] | MIC [4] [µg/mL] | SMILES |
| --- | --- | --- | --- | --- | --- |
| 0.031 (≈ 0.0589 µM) | 0.125 (≈ 0.237 µM) | 0.5 (≈ 0.949 µM) | 0.125 (≈ 0.237 µM) | 0.5 (≈ 0.949 µM) | Cn1cc(C(=O)O)c(=O)c2cc(F)c(N3CCC(CCNCc4ccc5c(n4)NC(=O)CS5)CC3)nc21 [Example 17, 6-Fluoro-1-methyl-4-oxo-7-(4-{2-[(3-oxo-3,4-dihydro-2H-pyrido[3,2-b][1,4]thiazin-6-ylmethyl)-amino]-ethyl}-piperidin-1-yl)-1,4-dihydro-[1,8]naphthyridine-3-carboxylic acid] |
| 1 (≈ 1.86 µM) | 2 (≈ 3.72 µM) | > 8 | 8 (≈ 14.9 µM) | 8 (≈ 14.9 µM) | O=C1COc2ccc(CNCCN3CCN(c4nc5c(cc4F)c(=O)c(C(=O)O)cn5C4CC4)CC3)nc2N1 [Example 12, 1-Cyclopropyl-6-fluoro-4-oxo-7-(4-{2-[(3-oxo-3,4-dihydro-2H-pyrido[3,2-b][1,4]oxazin-6-ylmethyl)-amino]-ethyl}-piperazin-1-yl)-1,4-dihydro-[1,8]naphthyridine-3-carboxylic acid] |
| 0.031 (≈ 0.0589 µM) | 0.063 (≈ 0.12 µM) | 1 (≈ 1.9 µM) | 0.125 (≈ 0.237 µM) | 0.25 (≈ 0.475 µM) | Cn1cc(C(=O)O)c(=O)c2cc(F)c(N[C@H]3CC[C@H](CNCc4ccc5c(n4)NC(=O)CS5)CC3)nc21 [Example 13, trans-6-Fluoro-1-methyl-4-oxo-7-(4-{[(3-oxo-3,4-dihydro-2H-pyrido[3,2-b][1,4]thiazin-6-ylmethyl)-amino]-methyl}-cyclohexylamino)-1,4-dihydro-[1,8]naphthyridine-3-carboxylic acid] |
| 0.125 (≈ 0.245 µM) | 0.25 (≈ 0.49 µM) | 2 (≈ 3.92 µM) | 0.5 (≈ 0.979 µM) | 1 (≈ 1.96 µM) | Cn1cc(C(=O)O)c(=O)c2cc(F)c(N3CCC(CCNCc4ccc5c(n4)NC(=O)CO5)CC3)nc21 [Example 16, 6-Fluoro-1-methyl-4-oxo-7-(4-{2-[(3-oxo-3,4-dihydro-2H-pyrido[3,2-b][1,4]oxazin-6-ylmethyl)-amino]-ethyl}-piperidin-1-yl)-1,4-dihydro-[1,8]naphthyridine-3-carboxylic acid] |
| 0.063 (≈ 0.123 µM) | 0.125 (≈ 0.245 µM) | 8 (≈ 15.7 µM) | 1 (≈ 1.96 µM) | 1 (≈ 1.96 µM) | Cn1cc(C(=O)O)c(=O)c2cc(F)c(N[C@H]3CC[C@H](CNCc4ccc5c(n4)NC(=O)CO5)CC3)nc21 [Example 14, trans-6-Fluoro-1-methyl-4-oxo-7-(4-{[(3-oxo-3,4-dihydro-2H-pyrido[3,2-b][1,4]oxazin-6-ylmethyl)-amino]-methyl}-cyclohexylamino)-1,4-dihydro-[1,8]naphthyridine-3-carboxylic acid] |
| 0.031 (≈ 0.0573 µM) | 0.125 (≈ 0.231 µM) | 1 (≈ 1.85 µM) | 0.063 (≈ 0.117 µM) | 0.5 (≈ 0.925 µM) | CCn1cc(C(=O)O)c(=O)c2cc(F)c(N[C@H]3CC[C@H](CNCc4ccc5c(n4)NC(=O)CS5)CC3)nc21 [Example 15, trans-1-Ethyl-6-fluoro-4-oxo-7-(4-{[(3-oxo-3,4-dihydro-2H-pyrido[3,2-b][1,4]thiazin-6-ylmethyl)-amino]-methyl}-cyclohexylamino)-1,4-dihydro-[1,8]naphthyridine-3-carboxylic acid] |

Source: patent US9540399B2, “Quinolone derivatives” (priority 2013, dated 2017)
